From publication PMC11054573, “Identification of Ureidocoumarin-Based Selective Discoidin Domain Receptor 1 (DDR1) Inhibitors via Drug Repurposing Approach, Biological Evaluation, and In Silico Studies” (Pharmaceuticals, 2024)
Where two headings read alike, the source gives them in different places. Blank lines part the entries; values can stand above or below the compound they belong to.

Legend:
DDR1 [1] = molecular target: T1, DDR1 (Homo sapiens, UniProt Q08345); experiment: RBC radiometric HotSpot kinase assay, DDR1; settings: for inhibition at 10 µM: read-out: % Inhibition at 10 μM (SEM) DDR1; for SI: Selectivity index (IC50 DDR2/IC50 DDR1): DDR1 over DDR2
T1 sequence (Q08345 19-913): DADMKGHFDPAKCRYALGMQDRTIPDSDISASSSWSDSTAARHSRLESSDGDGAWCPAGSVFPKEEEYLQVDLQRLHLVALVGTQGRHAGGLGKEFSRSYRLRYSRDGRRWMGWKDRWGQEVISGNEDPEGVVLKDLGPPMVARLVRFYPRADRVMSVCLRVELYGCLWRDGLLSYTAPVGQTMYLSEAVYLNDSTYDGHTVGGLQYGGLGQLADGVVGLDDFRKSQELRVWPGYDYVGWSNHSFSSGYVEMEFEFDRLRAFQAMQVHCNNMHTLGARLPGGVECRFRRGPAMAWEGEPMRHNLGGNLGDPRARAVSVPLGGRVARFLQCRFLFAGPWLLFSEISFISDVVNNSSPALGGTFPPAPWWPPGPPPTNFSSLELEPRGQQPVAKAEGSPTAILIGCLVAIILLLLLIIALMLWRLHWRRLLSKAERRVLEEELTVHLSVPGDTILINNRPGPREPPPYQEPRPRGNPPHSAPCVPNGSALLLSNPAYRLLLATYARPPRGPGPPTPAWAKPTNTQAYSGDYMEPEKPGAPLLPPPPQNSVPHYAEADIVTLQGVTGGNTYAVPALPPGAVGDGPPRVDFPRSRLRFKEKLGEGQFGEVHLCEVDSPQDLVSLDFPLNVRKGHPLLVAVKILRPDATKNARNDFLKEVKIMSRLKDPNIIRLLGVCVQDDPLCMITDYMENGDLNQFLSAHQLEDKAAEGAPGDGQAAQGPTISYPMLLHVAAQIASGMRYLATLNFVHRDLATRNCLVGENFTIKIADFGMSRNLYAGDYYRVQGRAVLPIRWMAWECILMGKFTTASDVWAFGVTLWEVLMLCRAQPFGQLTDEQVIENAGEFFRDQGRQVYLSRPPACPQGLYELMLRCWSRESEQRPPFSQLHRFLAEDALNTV
Experimental: (§7) All compounds in this study were tested against DDR1 and DDR2 at a 10 µM dose at Reaction Biology Corporation (RBC, Malvern, PA, USA) employing the radiometric HotSpot Kinase assay protocol (Table 1).

DDR2 = molecular target: T2, DDR2 (Homo sapiens, UniProt Q16832); experiment: RBC radiometric HotSpot kinase assay, DDR2; settings: for inhibition at 10 µM: read-out: % Inhibition at 10 μM (SEM) DDR2
T2 sequence (Q16832 22-855): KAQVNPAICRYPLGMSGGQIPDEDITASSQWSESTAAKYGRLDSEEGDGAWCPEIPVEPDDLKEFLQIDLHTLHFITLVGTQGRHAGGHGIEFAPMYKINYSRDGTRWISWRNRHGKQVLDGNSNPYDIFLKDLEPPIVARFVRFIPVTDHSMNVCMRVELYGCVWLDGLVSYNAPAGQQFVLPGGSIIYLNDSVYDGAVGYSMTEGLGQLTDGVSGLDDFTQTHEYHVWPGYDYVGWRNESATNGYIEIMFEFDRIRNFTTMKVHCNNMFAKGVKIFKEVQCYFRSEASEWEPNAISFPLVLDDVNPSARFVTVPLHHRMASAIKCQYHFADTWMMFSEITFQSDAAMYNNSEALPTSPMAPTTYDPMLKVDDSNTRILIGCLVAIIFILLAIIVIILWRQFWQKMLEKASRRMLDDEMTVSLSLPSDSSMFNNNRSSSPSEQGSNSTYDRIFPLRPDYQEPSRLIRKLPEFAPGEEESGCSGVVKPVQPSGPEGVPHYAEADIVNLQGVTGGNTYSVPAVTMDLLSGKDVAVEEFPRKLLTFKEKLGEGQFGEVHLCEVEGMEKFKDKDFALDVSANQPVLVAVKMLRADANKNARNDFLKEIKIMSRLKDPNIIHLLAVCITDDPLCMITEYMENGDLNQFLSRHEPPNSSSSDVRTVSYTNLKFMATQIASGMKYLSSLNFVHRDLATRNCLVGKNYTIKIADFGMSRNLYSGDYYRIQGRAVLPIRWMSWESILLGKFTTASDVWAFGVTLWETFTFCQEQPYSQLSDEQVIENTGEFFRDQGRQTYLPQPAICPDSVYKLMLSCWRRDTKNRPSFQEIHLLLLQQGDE
Experimental: as §7

DDR1 [2] = molecular target: T1, DDR1; set-up: purchased Reaction Biology Corporation (RBC, Malvern, PA, USA); settings: cited from earlier work
T47D breast cancer cells = experiment: NCI SRB antiproliferative assay, T47D; assay type: cell-based; settings: Homo sapiens, read-out: % Growth inhibition at 10 µM T47D
Experimental: (§1) Six members, 3a, 3g–j, and 3q, out of the investigated compounds were further evaluated for their antiproliferative effects against human cancer cell lines, including leukemia (K562), colon cancer (HCT116), non-small cell lung (NSCL) cancer (A549, NCI-H23 and NCI-H460), and breast cancer (MCF-7 and T47D) cells. The tested cell lines’ choice depended on their elevated DDR1 expression levels. The cell lines were all treated with a 10 µM concentration of the tested compounds, and the results were expressed as the percentage of growth inhibition (%GI) (Table 4).
(§2) Inhibition of the tumor relevant carbonic anhydrases IX and XII may be one of these additional mechanisms.
(§3) The evaluation of the antiproliferative activities of compounds 3a, 3g–j, and 3q over a panel of DDR1-dependent cell lines was conducted employing the sensitive Sulforhodamine B (SRB) assay at the National Cancer Institute (NCI), Bethesda, Maryland, USA, following the standard protocol.

[3] = tested on: NCI-H460 non-small cell lung cancer cells; experiment: NCI SRB antiproliferative assay, NCI-H460; assay type: cell-based; settings: Homo sapiens, read-out: % Growth inhibition at 10 µM NCI-H460
Experimental: as §1, §2, §3

[4] = tested on: A549 non-small cell lung cancer cells; experiment: NCI SRB antiproliferative assay, A549; assay type: cell-based; settings: Homo sapiens, read-out: % Growth inhibition at 10 µM A549
Experimental: as §1, §2, §3

[5] = tested on: HCT116 colon cancer cells; experiment: NCI SRB antiproliferative assay, HCT116; assay type: cell-based; settings: Homo sapiens, HCT-116; read-out: % Growth inhibition at 10 µM HCT116
Experimental: as §1, §2, §3

[6] = tested on: DDR1-dependent cancer cell lines; experiment: NCI SRB antiproliferative assay, whole panel of DDR1-dependent cell lines; assay type: cell-based, human; settings: 10 µM, span over the seven cell lines
Experimental: as §1, §2, §3

K562 leukemia cells = experiment: NCI SRB antiproliferative assay, K562; assay type: cell-based; settings: Homo sapiens, read-out: % Growth inhibition at 10 µM K562
Experimental: as §1, §2, §3

[7] = tested on: MCF-7 breast cancer cells; experiment: NCI SRB antiproliferative assay, MCF-7; assay type: cell-based; settings: Homo sapiens, MCF7; read-out: % Growth inhibition at 10 µM MCF-7
Experimental: as §1, §2, §3

[8] = tested on: NCI-H23 non-small cell lung cancer cells; experiment: NCI SRB antiproliferative assay, NCI-H23; assay type: cell-based; settings: Homo sapiens, read-out: % Growth inhibition at 10 µM NCI-H23
Experimental: as §1, §2, §3

TrkA kinase = molecular target: T3, TrkA kinase (Homo sapiens, UniProt P04629); experiment: Biochemical kinase profile (23 oncogenic kinases), TrkA; settings: 10 μM compound, 10 μM ATP, single-dose duplicate
T3 construct: purchased Reaction Biology Corporation (RBC)
T3 sequence (P04629 33-796): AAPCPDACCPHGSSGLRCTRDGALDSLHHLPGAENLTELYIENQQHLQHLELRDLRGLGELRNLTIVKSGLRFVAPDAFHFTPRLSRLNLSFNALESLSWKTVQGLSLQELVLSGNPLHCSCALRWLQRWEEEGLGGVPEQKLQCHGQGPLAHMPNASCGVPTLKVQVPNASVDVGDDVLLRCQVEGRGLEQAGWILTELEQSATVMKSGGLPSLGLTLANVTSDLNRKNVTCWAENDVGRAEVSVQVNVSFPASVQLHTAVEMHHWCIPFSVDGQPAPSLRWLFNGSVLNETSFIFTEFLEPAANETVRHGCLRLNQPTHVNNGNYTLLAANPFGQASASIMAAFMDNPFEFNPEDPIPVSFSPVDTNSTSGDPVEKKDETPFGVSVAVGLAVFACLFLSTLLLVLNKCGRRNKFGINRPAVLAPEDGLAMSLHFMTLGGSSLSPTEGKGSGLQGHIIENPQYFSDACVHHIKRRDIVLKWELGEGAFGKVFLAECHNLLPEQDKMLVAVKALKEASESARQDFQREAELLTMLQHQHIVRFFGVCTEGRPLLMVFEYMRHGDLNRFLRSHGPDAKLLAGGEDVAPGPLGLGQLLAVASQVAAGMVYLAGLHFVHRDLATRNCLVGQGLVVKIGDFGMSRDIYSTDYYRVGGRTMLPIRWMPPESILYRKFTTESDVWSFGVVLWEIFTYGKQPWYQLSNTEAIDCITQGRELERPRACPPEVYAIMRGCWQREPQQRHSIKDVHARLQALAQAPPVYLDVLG
Experimental: (§4) These tested kinases were selected based on common off targets for several DDR1/2 kinase inhibitors.
(§5) Reaction Biology Corporation (RBC) Kinase HotSpot^SM service was adopted for biochemical evaluation of the target compounds against DDR1 and DDR2 kinases along with the kinase profile of compound 3q according to the reported assay protocol.
(§6) Figure 5 Inhibition percentages exerted by compound 3q (10 µM) over a panel of 23 oncogenic kinases. Compound 3q was tested in a single-dose duplicate mode, and the reactions were carried out at 10 μM ATP.

ABL1 kinase = molecular target: T4, ABL1 kinase (Homo sapiens, UniProt P00519); experiment: Biochemical kinase profile (23 oncogenic kinases), ABL1; settings: 10 μM compound, 10 μM ATP, single-dose duplicate; read-out: % inhibition ABL1 kinase (and rest of tested kinases)
T4 construct: purchased Reaction Biology Corporation (RBC)
T4 sequence (P00519 whole entry): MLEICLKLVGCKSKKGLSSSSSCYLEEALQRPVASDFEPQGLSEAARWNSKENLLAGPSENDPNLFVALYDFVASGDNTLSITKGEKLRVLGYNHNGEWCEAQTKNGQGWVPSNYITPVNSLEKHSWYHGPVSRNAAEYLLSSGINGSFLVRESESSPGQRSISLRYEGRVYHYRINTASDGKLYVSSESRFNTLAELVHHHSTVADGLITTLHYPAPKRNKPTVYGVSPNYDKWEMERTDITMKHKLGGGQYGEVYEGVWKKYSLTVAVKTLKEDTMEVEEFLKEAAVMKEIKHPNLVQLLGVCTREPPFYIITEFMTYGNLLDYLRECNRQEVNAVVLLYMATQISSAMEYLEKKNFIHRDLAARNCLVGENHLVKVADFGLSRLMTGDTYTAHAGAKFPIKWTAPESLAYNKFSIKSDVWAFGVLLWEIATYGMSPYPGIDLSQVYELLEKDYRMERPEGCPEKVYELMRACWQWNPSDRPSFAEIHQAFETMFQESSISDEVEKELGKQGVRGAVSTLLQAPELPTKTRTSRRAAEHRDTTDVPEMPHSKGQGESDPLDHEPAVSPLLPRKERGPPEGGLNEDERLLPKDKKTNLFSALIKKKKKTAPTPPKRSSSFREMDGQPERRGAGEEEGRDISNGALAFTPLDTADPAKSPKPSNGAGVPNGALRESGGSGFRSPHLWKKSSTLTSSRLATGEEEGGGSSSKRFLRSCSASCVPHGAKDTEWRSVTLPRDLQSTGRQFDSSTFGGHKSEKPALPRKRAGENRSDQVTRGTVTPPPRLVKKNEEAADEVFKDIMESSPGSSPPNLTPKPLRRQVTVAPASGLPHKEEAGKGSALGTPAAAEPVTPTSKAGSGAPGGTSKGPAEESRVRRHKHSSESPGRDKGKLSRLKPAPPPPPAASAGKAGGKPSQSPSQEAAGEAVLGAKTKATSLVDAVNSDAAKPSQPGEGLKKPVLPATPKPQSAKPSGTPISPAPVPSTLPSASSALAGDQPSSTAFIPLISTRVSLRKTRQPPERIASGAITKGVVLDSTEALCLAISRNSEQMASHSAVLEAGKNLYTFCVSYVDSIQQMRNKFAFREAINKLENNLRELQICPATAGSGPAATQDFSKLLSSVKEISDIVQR
Experimental: as §4, §5, §6

c-Kit kinase = molecular target: T5, c-Kit kinase (Homo sapiens, UniProt P10721); experiment: Biochemical kinase profile (23 oncogenic kinases), c-Kit; settings: 10 μM compound, 10 μM ATP, single-dose duplicate
T5 construct: purchased Reaction Biology Corporation (RBC)
T5 sequence (P10721 26-976): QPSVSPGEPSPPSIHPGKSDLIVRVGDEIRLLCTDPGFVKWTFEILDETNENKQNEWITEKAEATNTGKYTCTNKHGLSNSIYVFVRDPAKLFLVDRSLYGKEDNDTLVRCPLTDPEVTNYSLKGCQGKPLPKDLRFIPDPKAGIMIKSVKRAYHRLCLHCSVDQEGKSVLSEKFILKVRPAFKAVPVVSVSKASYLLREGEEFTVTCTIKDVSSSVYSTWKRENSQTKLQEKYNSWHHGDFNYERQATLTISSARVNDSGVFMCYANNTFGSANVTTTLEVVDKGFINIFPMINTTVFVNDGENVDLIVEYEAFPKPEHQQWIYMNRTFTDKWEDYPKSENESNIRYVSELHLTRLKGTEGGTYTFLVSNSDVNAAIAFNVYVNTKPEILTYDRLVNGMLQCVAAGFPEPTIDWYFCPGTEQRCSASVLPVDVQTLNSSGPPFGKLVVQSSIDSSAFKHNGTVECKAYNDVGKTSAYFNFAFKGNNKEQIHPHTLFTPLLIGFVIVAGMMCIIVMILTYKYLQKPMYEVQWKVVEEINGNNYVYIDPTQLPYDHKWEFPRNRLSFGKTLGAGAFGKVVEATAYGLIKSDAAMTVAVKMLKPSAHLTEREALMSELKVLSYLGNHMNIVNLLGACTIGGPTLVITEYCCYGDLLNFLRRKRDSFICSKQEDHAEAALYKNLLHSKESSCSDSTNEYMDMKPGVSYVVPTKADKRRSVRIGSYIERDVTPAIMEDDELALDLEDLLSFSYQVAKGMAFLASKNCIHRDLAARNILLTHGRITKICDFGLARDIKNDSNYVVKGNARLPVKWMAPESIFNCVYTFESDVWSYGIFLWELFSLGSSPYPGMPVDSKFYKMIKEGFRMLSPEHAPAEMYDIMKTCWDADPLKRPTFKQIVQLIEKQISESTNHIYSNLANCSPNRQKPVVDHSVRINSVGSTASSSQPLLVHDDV
Experimental: as §4, §5, §6

inhibition at 10 µM (DDR1 [1]): 15% | inhibition at 10 µM (DDR2): 17.1%
SMILES: O=C(Nc1ccc2oc(=O)ccc2c1)Nc1c(Br)cc(F)cc1Br [Compound 3p]

SMILES: O=C(Nc1cccc(Cl)c1)Nc1cc2ncncc2cc1OCc1cccc(F)c1 [KST9046]
IC50 (DDR1 [2]): 4380 nM

IC50 (DDR1 [1]): 1660 nM | SI: Selectivity index (IC50 DDR2/IC50 DDR1) (DDR1 [1]): >6.0 | inhibition at 10 µM (DDR1 [1]): 57.2% | IC50 (DDR2): > 10000 nM | inhibition at 10 µM (DDR2): 27.5%
SMILES: O=C(Nc1ccc(F)c(Cl)c1)Nc1ccc2oc(=O)ccc2c1 [Compound 3h]
inhibition at 10 µM (T47D breast cancer cells): 24.6% | inhibition at 10 µM [3]: 20.6% | inhibition at 10 µM [4]: 15.1% | inhibition at 10 µM [5]: 14.1% | %GI over all tested cell lines [6]: < 35% | inhibition at 10 µM (K562 leukemia cells): 32.2% | inhibition at 10 µM [7]: 25.4% | inhibition at 10 µM [8]: 14.3%

inhibition at 10 µM (DDR1 [1]): 25.6% | inhibition at 10 µM (DDR2): 15.9%
SMILES: O=C(Nc1ccc(F)cc1)Nc1ccc2oc(=O)ccc2c1 [Compound 3c]

inhibition at 10 µM (DDR1 [1]): 23.1% | inhibition at 10 µM (DDR2): 7.53%
SMILES: O=C(Nc1ccc(Br)cc1)Nc1ccc2oc(=O)ccc2c1 [Compound 3d]

inhibition at 10 µM (DDR1 [1]): 15.4% | inhibition at 10 µM (DDR2): 3.07%
SMILES: CCCCc1ccc(NC(=O)Nc2ccc3oc(=O)ccc3c2)cc1 [Compound 3e]

inhibition at 10 µM (DDR1 [1]): 22.4% | inhibition at 10 µM (DDR2): 17%
SMILES: O=C(Nc1ccc2oc(=O)ccc2c1)c1cc(F)cc(F)c1 [Compound 4c]

inhibition at 10 µM (DDR1 [1]): 10.6% | inhibition at 10 µM (DDR2): 5.52%
SMILES: CCCCOc1ccc(NC(=O)Nc2ccc3oc(=O)ccc3c2)cc1 [Compound 3f]

SMILES: CCN1CCN(Cc2ccc(NC(=O)Nc3nc4ccc(Oc5ccnc(C(=O)NC)c5)cc4s3)cc2C(F)(F)F)CC1 [KST016366]
IC50 (DDR1 [2]): 26.5 nM

inhibition at 10 µM (DDR1 [1]): 19% | inhibition at 10 µM (DDR2): 17.1%
SMILES: O=C(Nc1ccc2oc(=O)ccc2c1)Nc1ccc(Cl)cc1Cl [Compound 3l]

SMILES: O=C(Nc1cccc(OC(F)(F)F)c1)Nc1ccc2oc(=O)ccc2c1 [Compound 3q, 1-(2-Oxo-2H-chromen-6-yl)-3-(3-(trifluoromethoxy)phenyl)urea]
inhibition at 10 µM (T47D breast cancer cells): 69.4% | inhibition at 10 µM [3]: 69.9% | inhibition at 10 µM [4]: 45.6% | inhibition at 10 µM [5]: 66.3% | IC50 (DDR1 [1]): 191 nM | SI: Selectivity index (IC50 DDR2/IC50 DDR1) (DDR1 [1]): 26.6 | inhibition at 10 µM (DDR1 [1]): 87.4% | %GI over all tested cell lines [6]: 45.65–69.93% | inhibition at 10 µM (K562 leukemia cells): 67.1% | inhibition at 10 µM [7]: 57% | inhibition at 10 µM [8]: 56.6% | %EI TrkA kinase (TrkA kinase): 46.95% | inhibition at 10 µM (ABL1 kinase): < 25% | %EI c-Kit kinase (c-Kit kinase): 75.59% | IC50 (DDR2): 5080 nM | inhibition at 10 µM (DDR2): 70.1%

inhibition at 10 µM (DDR1 [1]): 33.8% | inhibition at 10 µM (DDR2): 17.3%
SMILES: Cc1cc(C)cc(NC(=O)Nc2ccc3oc(=O)ccc3c2)c1 [Compound 3k]
